Experimental data from patent US7943603B2, “Medical uses of a selective estrogen receptor modulator in combination with sex steroid precursors” (Endorecherche, Inc., priority 1998, dated 2011).
“And” between values parts separate entries of the source, which are not always exact repeats. Equal values may be shown once.

How the values were obtained:
[1] = tested on: female rat; experiment: Bone mineral density (DEXA) after 9-month treatment; type: in vivo; settings: DHEA 10 mg percutaneously, EM-800 75 μg orally, once daily, alone or in combination, 9 months
Protocol: (§1) Female Sprague-Dawley rats [Crl:CD(SD)Br] were obtained at 44-46 days of age from Charles River Canada Inc. (St. Constant, Quebec) and housed 2 per cage in a light (12 h light/day; lights on at 07:15 h)-and temperature (22±2° C.)-controlled environment. Animals received Purina rodent chow and tap water ad libitum. The animal studies were conducted in a Canadian Council on Animal Care (CCAC)-approved facility in agreement with the CCAC Guide for Care and Use of Experimental Animals.
(§2) The animals were randomly divided into groups each containing 20 rats with the exception of 40 animals in the control group. […] Treatment was initiated 3 days before the oral administration of DMBA. EM-800 was synthesized in the Medicinal Chemistry Division of our laboratory while DHEA was purchased from Steraloids Inc., Wilton, N.H.
Rats were anesthetized with an i.p. injection of ketamine hydrochloride and diazepam at doses of 50 and 4 mg/kg B.W., respectively. The whole skeleton and the right femur were scanned using dual energy X-ray absorptiometry (DEXA; QDR 2000-7.10C, Hologic, Waltham, Mass.) equipped with a Regional High Resolution software. The scan field sizes were 28.110×17.805 cm and 5.0×1.902 cm, the resolutions were 0.1511×0.0761 cm and 0.0254×0.0127 cm, while the scan speeds were 0.3608 and 0.0956 mm/sec for total skeleton and femur, respectively. Both bone mineral content (BMC) and bone mineral density (BMD) of total skeleton, lumbar spine, and femur were measured on the scan images of total skeleton and femur.

[2] = tested on: human ZR-75-1 breast tumor xenografts; experiment: Growth of human ZR-75-1 breast tumor xenografts in OVX nude mice supplemented with estrone; settings: OVX+E1 0.5 μg nude mice, 9.5 months; for average tumor weight: E1 control 1.12±0.26
[3] = tested on: DMBA-induced mammary carcinoma; experiment: Development of DMBA-induced mammary carcinoma in the rat; type: in vivo; settings: 279 days after DMBA
Protocol: as §1
Mammary carcinomas were induced by a single intragastric administration of 20 mg of DMBA (Sigma Chemical Co., St. Louis, Mo.) in 1 ml of corn oil at 50-52 days of age. Two months later, tumor measurement was performed biweekly. The two largest perpendicular diameters of each tumor were recorded with calipers to estimate tumor size as described (Asselin et al., Endocrinology 101: 666-671, 1977). Tumor site, size and number were recorded.
as §2
Many of the control animals and some of EM-800- or DHEA-treated animals were sacrificed by cervical dislocation under isoflurane-induced anesthesia 6 months after DMBA administration because of the too large size of tumors. The values of tumor size and number of these rats at sacrifice, together with those measured at later time intervals from the surviving animals, were used for the later analysis of the incidence of tumors, average tumor number per tumor-bearing rat and average tumor size per tumor-bearing animal. […] Rats were sacrificed 279 days after DMBA administration.
Statistical significance was measured according to the multiple range test of Duncan-Kramer (Biometrics 12: 307-310, 1956). Analysis of the incidence of development of mammary tumors was performed using the Fisher's exact test (Conover, Practical nonparametric statistics, 2nd Edition 153-170, 1980). The data are presented as means±S.E.M.

[4] = tested on: rat; experiment: Serum triglyceride and cholesterol levels after 9-month treatment; type: in vivo; settings: DHEA 10 mg percutaneously, EM-800 75 μg orally, once daily, alone or in combination, 9 months
Excerpt: as §2
Twenty-four-hour urinary samples were collected at the end of the experiment from the first 9 rats of each group following transfer in metabolic cages (Allentown Caging Equipment Co., Allentown, N.J.). Two urinary samples were collected and analyzed on different days for each animal in order to minimize the influence of daily variation. Therefore, each value shown represents the mean of the two measurements performed on two different days. 0.5 ml of toluene was added into the urine collecting tubes to prevent urine evaporation and bacterial growth and the urinary volume was recorded. Trunk blood was collected at sacrifice and was allowed to clot at 4° C. overnight before centrifugation at 3000 rpm for 30 min.
Fresh samples were used for the assay of urinary creatinine, calcium, and phosphorus as well as serum total alkaline phosphatase (tALP) activity, cholesterol and triglycerides. These biochemical parameters were measured automatically with a Monarch 2000 Chemistry System (Instrumentation Laboratory Co. Lexington, Mass.) under Good Laboratory Practice conditions. Urinary hydroxyproline was measured as described (Podenphant et al., Clinica Chimica Acta 142: 145-148, 1984).

## CC1=C(c2ccc(OC(=O)C(C)(C)C)cc2)[C@H](c2ccc(OCCN3CCCCC3)cc2)Oc2cc(OC(=O)C(C)(C)C)ccc21 [EM-800, (+)-7-pivaloyloxy-3-(4′-pivaloyloxyphenyl)-4-methyl-2-(4″-(2′″-piperidinoethoxy)phenyl)-2H-benzopyran]
[1]
  BMD FEMUR: 0.3097 ± 0.0047 g/cm2
  BMD LUMBAR SPINE: 0.1888 ± 0.0045 g/cm2
  BMD TOTAL SKELETON: 0.1356 ± 0.0017 g/cm2
  increase in BMD of femur versus control: no significant change
  increase in BMD of lumbar spine versus control: no significant change
  increase in BMD of total skeleton versus control: no significant change
[2]; EM-800 15 μg orally daily
  Complete response, (%): 29.4%
  Complete response, number: 5
  Partial response, (%): 5.9%
  Partial response, number: 1
  Progression, (%): 35.3%
  Progression, number: 6
  Stable response, (%): 29.4%
  Stable response, number: 5
  inhibition of estrogen-stimulated ZR-75-1 tumor size: 88% and 87.5%
  average tumor weight: 0.08 ± 0.03 g
[2]; EM-800 50 μg orally daily
  Complete response, (%): 25.0%
  Complete response, number: 4
  Partial response, (%): 18.8%
  Partial response, number: 3
  Progression, (%): 25.0%
  Progression, number: 4
  Stable response, (%): 31.2%
  Stable response, number: 5
  inhibition of estrogen-stimulated ZR-75-1 tumor size: 93% and 93.5%
  average tumor weight: 0.03 ± 0.01 g
[2]; EM-800 100 μg orally daily
  Complete response, (%): 50.0%
  Complete response, number: 8
  Partial response, (%): 0 (0) %
  Partial response, number: 0 (0)
  Progression, (%): 31.2%
  Progression, number: 5
  Stable response, (%): 18.8%
  Stable response, number: 3
  inhibition of estrogen-stimulated ZR-75-1 tumor size: 94%
  average tumor weight: 0.04 ± 0.03 g
[3]; DHEA 10 mg percutaneously, EM-800 75 μg orally, once daily, control 95%
  incidence of DMBA-induced mammary carcinoma (animals with palpable tumors): 38%
[3]; end of experiment, DHEA 10 mg, EM-800 75 μg daily, control 4.7±0.5
  average tumor number per tumor-bearing animal: 1.4±0.3 tumors/animal
[3]; end of experiment, DHEA 10 mg, EM-800 75 μg daily, control 12.8±1.3
  average tumor area per tumor-bearing animal: 7.7±1.8 cm^2
[4]
  decrease of serum cholesterol levels: 45%
  decrease of serum triglyceride levels: 72%
